SMILES strings stand for the structures. The source made the active and inactive calls. No rule for the calls is given here. A value given as a limit tells only on which side of the number the result lay.

IC50 and IC90 data for 32 molecules are collected here from PubChem BioAssay AID434987 (Southern Research Specialized Biocontainment Screening …, 2010).

The subject of the experiment is M. tuberculosis H37Rv growth inhibition with meropenem. The experiment can be described thus: dose response, H37Rv, with and without meropenem (AID 434987).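 Also: growth over 7 days at 37 °C before Alamar Blue read on day 9.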
Where [1] appears, read: M. tuberculosis H37Rv growth inhibition, measured here: IC50 without meropenem.
Where [2] appears, read: M. tuberculosis H37Rv growth inhibition, measured here: IC90 without meropenem.
Setting [3] is: measured here: IC90 with meropenem.

For the molecule `Cc1cc(C)c2oc(-c3ccc(Cl)c(NC(=O)c4ccc(C#N)cc4F)c3)nc2c1`, the IC50 (commonly the midpoint of a concentration-inhibition curve) is > 100 µM (inactive). The IC50 under setting [1] is greater than 100 µM. The IC90 (commonly the point of the concentration-response curve where the effect stands at 90%) under setting [2] was greater than 100 µM. Under setting [3], this molecule registered a concentration for an effect of 90% (IC90) greater than 100 µM.
Turning to `COc1ccc2c(c1)c(CC(=O)Nc1ccc(C)cc1)c(C)n2C(=O)c1ccc(Cl)cc1`, the IC50 was > 100 µM (inactive). For the same molecule, under setting [1], the half-maximal inhibitory concentration (IC50) is greater than 100 µM. Moreover, the IC90 under setting [2] is greater than 100 µM. For the same molecule, the 90% effect concentration (IC90) under setting [3] was greater than 100 µM.
Regarding `S=C(NN=C1C2CC3CC(C2)CC1C3)Nc1ccccc1`, the IC50 is 45.7 µM (inactive). Under setting [1], this molecule gave a concentration for half-maximal inhibition (IC50) of 48.7 µM. Besides, the IC90 under setting [2] turned out to be 54.7 µM. The molecule further returned a concentration for an effect of 90% (IC90) under setting [3] of 51.4 µM.
For `Cn1c(=O)[nH]c(=O)c2c1nc(Br)n2CCC(=O)c1ccccc1` the same measures were 38.6 µM, greater than 100 µM, greater than 100 µM and greater than 50 µM.
On the same counts, the results for `CCc1ccc2oc(-c3cc(N)cc(C)c3O)nc2c1` are 76.1 µM (inactive), 93.2 µM, greater than 100 µM and greater than 100 µM.
For `CC(=O)Nc1ccc(Nc2ncc([N+](=O)[O-])c(Nc3ccc(NC(C)=O)cc3)n2)cc1` the same measures were 0.423 µM, 2.43 µM, greater than 100 µM and 45.5 µM.
Consider `CC1CC(C)(C)n2c(O)c(N=NC(N)=S)c3cccc1c32` (stereo not drawn), for which the IC50 is > 100 µM (inactive). The IC50 under setting [1] was greater than 100 µM. Besides, the concentration for an effect of 90% (IC90) under setting [2] is greater than 100 µM. This molecule had a 90% effect concentration (IC90) under setting [3] greater than 100 µM.
`CCOC(=O)c1sc(Nc2nc3c(OC)cccc3s2)cc1C`: the IC50 was 98.6 µM (inactive). Under setting [1], this molecule showed an IC50 of 89 µM. This molecule registered a concentration for an effect of 90% (IC90) under setting [2] greater than 100 µM. The molecule further yielded an IC90 under setting [3] greater than 100 µM.
Regarding `COC(=O)C1=C(C)NC(=O)/C1=C\c1cc(C)n(-c2cc(C)cc(C)c2)c1C`, the IC50 was 88.9 µM (inactive). The same molecule returned a half-inhibitory concentration (IC50) under setting [1] of 97.9 µM. This molecule showed an IC90 under setting [2] greater than 100 µM. The molecule further gave an IC90 under setting [3] greater than 100 µM.
Regarding `S=C(Nc1ccc(Cl)cc1)c1nc2ccccc2s1`, the IC50 is 43.2 µM (inactive). This molecule also yielded an IC50 under setting [1] greater than 100 µM. The molecule also yielded an IC90 under setting [2] greater than 100 µM. Besides, under setting [3], the concentration for an effect of 90% (IC90) is greater than 100 µM.
`O=C(COc1ccccc1)Nc1cccc(-c2nnc(-c3ccccc3)o2)c1`: the IC50 was > 100 µM (inactive). In addition, the IC50 under setting [1] is greater than 100 µM. For the same molecule, the IC90 under setting [2] was greater than 100 µM. Under setting [3], this molecule yielded a concentration for an effect of 90% (IC90) greater than 100 µM.
Turning to `COc1ccc(C(=O)CN(C(=O)c2ccc(Cl)cc2)N2C(=O)c3ccccc3C2=O)cc1`, the half-inhibitory concentration (IC50) was 5.66 µM. This molecule also gave an IC50 under setting [1] of 34.9 µM. The same molecule returned an IC90 under setting [2] greater than 100 µM. The same molecule came in with an IC90 under setting [3] of 22.4 µM.
As to `Cc1cccc(NC(=O)c2nc[nH]c2C(=O)N[C@@H](CC(C)C)C(=O)OCc2ccccc2)c1`, the IC50 was 9.43 µM. The half-inhibitory concentration (IC50) under setting [1] worked out at 26.1 µM. Under setting [2], this molecule gave an IC90 of 51.8 µM. Under setting [3], the IC90 is greater than 100 µM.
For the molecule `O=C(NCc1ccco1)c1cc2n(n1)C(C(F)(F)F)CC(c1ccc(F)cc1)N2` (stereo not drawn), the IC50 was > 100 µM (inactive). This molecule also yielded an IC50 under setting [1] greater than 100 µM. Under setting [2], this molecule showed an IC90 greater than 100 µM. Moreover, the concentration for an effect of 90% (IC90) under setting [3] was greater than 100 µM.
With `CCOc1ccc2cc(S(=O)(=O)N3CCCCC3)ccc2c1`, the IC50 is > 100 µM (inactive). Under setting [1], the IC50 is greater than 100 µM. Under setting [2], this molecule displayed an IC90 greater than 100 µM. The IC90 under setting [3] was greater than 100 µM.
In the case of `COCCOC(=O)c1c(C)oc2ccc(OCc3cc(C(=O)OC)oc3C)cc12`, the IC50 is > 100 µM (inactive). This molecule showed an IC50 under setting [1] greater than 100 µM. The IC90 under setting [2] was greater than 100 µM. Under setting [3], this molecule yielded an IC90 greater than 100 µM.
For the molecule `CN(C)S(=O)(=O)Oc1ccsc1C(=O)Nc1ccc(C(F)(F)F)cc1`, the IC50 is > 100 µM (inactive). This molecule had an IC50 under setting [1] greater than 100 µM. The concentration for an effect of 90% (IC90) under setting [2] is greater than 100 µM. This molecule gave an IC90 under setting [3] greater than 100 µM.
With `Cc1nc(SCC(=O)NCc2ccco2)c2c3c(sc2n1)CCCC3`, the IC50 is > 100 µM (inactive). This molecule registered an IC50 under setting [1] greater than 100 µM. Moreover, the IC90 under setting [2] is greater than 100 µM. Under setting [3], this molecule registered a 90% effect concentration (IC90) greater than 100 µM.
For the molecule `CCCC(=O)N1CCN(c2ccc(NC(=S)NC(=O)CC)cc2)CC1`, the IC50 was 62.1 µM (inactive). For the same molecule, the 50% inhibitory concentration (IC50) under setting [1] is greater than 100 µM. Under setting [2], this molecule returned a concentration for an effect of 90% (IC90) greater than 100 µM. This molecule also gave an IC90 under setting [3] greater than 100 µM.
On to `Cc1ccc(S(=O)(=O)NCCCCCC(=O)Nc2nccs2)cc1`, for which the IC50 is > 100 µM (inactive). This molecule yielded a concentration for half-maximal inhibition (IC50) under setting [1] greater than 100 µM. The concentration for an effect of 90% (IC90) under setting [2] is greater than 100 µM. The same molecule showed an IC90 under setting [3] greater than 100 µM.
As for `COc1ccc(-c2cc(C(F)F)nc(-n3nc(C)cc3C)n2)cc1`, the IC50 is 24.3 µM (inactive). Under setting [1], the IC50 worked out at 47.4 µM. Further, the 90% effect concentration (IC90) under setting [2] is greater than 100 µM. Besides, the IC90 under setting [3] was found to be 54.1 µM.
As for `C=CCn1c(SCc2ccc(C(=O)Nc3nccs3)cc2)nnc1-c1ccc(C)c(Cl)c1`, the IC50 was 95.3 µM (inactive). The molecule also registered an IC50 under setting [1] greater than 100 µM. This molecule gave an IC90 under setting [2] greater than 100 µM. Also, the IC90 under setting [3] is greater than 100 µM.
On to `CN(NC(=O)c1c(Cl)cccc1Cl)c1cccc(Cl)n1`, for which the IC50 was 7.34 µM. In addition, the IC50 under setting [1] came to 62.3 µM. The IC90 under setting [2] was greater than 100 µM. Under setting [3], this molecule had an IC90 greater than 100 µM.
As for `Cc1onc(-c2ccccc2Cl)c1C(=O)NCc1ccc2c(c1)cc(C)n2C`, the IC50 is 16.6 µM (inactive). In addition, under setting [1], the half-maximal inhibitory concentration (IC50) was 39 µM. Further, the IC90 under setting [2] was 58.5 µM. This molecule also displayed a 90% effect concentration (IC90) under setting [3] of 29.4 µM.
On the same counts, the results for `Cc1nc(S/C(=C\c2ccc(OCc3ccccc3Cl)cc2)C(=O)O)n[nH]1` are > 100 µM (inactive), greater than 100 µM, greater than 100 µM and greater than 100 µM.
On the same counts, the results for `CSc1nc(-c2ccc(Cl)cc2)nn1S(=O)(=O)c1ccccc1` are 9.85 µM, greater than 100 µM, greater than 100 µM and greater than 100 µM.
On the same counts, the results for `O=C(CCNc1ccc(F)cc1)c1cccc([N+](=O)[O-])c1` are > 100 µM (inactive), greater than 100 µM, greater than 100 µM and greater than 100 µM.
Regarding `Cc1c(NC(=O)c2noc3c2CCc2ccccc2-3)c(=O)n(-c2ccccc2)n1C`, the IC50 is 28.3 µM. Moreover, the concentration for half-maximal inhibition (IC50) under setting [1] was greater than 100 µM. Besides, under setting [2], the IC90 was greater than 100 µM. This molecule also yielded an IC90 under setting [3] greater than 50 µM.
In the case of `CCc1ccccc1NC(=O)CNC(=O)c1cc(C2CC2)nn1-c1ccccc1`, the IC50 was > 100 µM (inactive). This molecule also displayed an IC50 under setting [1] greater than 100 µM. In addition, under setting [2], the IC90 is greater than 100 µM. Under setting [3], this molecule registered an IC90 greater than 100 µM.
Turning to `COc1ccc(-c2csc(Nc3ncccc3C)n2)cc1OC`, the IC50 was 61.3 µM (inactive). Moreover, the IC50 under setting [1] was greater than 100 µM. This molecule registered an IC90 under setting [2] greater than 100 µM. This molecule displayed an IC90 under setting [3] greater than 100 µM.
`COC(=O)Cn1c2ccccc2c2nc(C)sc21`: the IC50 is 18.9 µM (inactive). This molecule also displayed a concentration for half-maximal inhibition (IC50) under setting [1] of 25.4 µM. Under setting [2], the IC90 was found to be 44.4 µM. The molecule further yielded an IC90 under setting [3] of 27.8 µM.
For `CN(C)c1ccc(S(=O)(=O)NCC(=O)OCC(=O)Nc2cccc(Cl)c2)cc1[N+](=O)[O-]` the same measures were > 100 µM (inactive), greater than 100 µM, greater than 100 µM and greater than 100 µM.
